# Laboratory results as given in publication PMC9596378, “Discovery and molecular basis of subtype-selective cyclophilin inhibitors” (Nature Chemical Biology, 2022).
# Several values for one entry are separate records, joined by “and”; a condition that tells them apart may be missing. Equal entries are not always repeated. Where two headings read alike, the source gives them in different places.
# Legend:
# [1] = target: T1, CypB (Homo sapiens, UniProt P23284); test: biochemical; conditions: for CypB prolyl-isomerase assay raw dose-response value: Fig. 3b source data, replicates
# T1 construct: PPIB (UniProtKB Entry P23284: residues 34–216); His6 with TEV site (2BT vector leader) (N); made in house; host or cells: E. coli BL21(DE3)
# T1 sequence (P23284 34-216): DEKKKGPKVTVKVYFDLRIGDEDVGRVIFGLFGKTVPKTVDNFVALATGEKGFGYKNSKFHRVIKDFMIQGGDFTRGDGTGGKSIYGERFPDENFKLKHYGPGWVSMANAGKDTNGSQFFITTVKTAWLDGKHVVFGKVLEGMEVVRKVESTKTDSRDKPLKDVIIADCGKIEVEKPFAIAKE
# Method in brief: (§1)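 Steps: cyclophilin plus compound 5 min at 2–3 °C; α-chymotrypsin added, 5 min more; Suc-AAPF-AMC substrate in LiCl/trifluoroethanol injected and fluorescence followed 330 s. Finals: 5 nM enzyme, 25 µM chymotrypsin, 5 µM substrate, 0.25% DMSO.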
# [2] = target: T2, CypA E81S/K82R (Homo sapiens, UniProt P62937, E81S/K82R); test: Chymotrypsin coupled prolyl-isomerase assay; assay type: biochemical
# T2 construct: Lane 12- SNA-CypA E81S/K82R (1-165);; His6 tag with TEV site (2BT vector); SNA remnant stays on the N-terminus (N, cleaved yes); made in house; host or cells: E. coli BL21(DE3)
# T2 sequence (P62937 whole entry E81S/K82R): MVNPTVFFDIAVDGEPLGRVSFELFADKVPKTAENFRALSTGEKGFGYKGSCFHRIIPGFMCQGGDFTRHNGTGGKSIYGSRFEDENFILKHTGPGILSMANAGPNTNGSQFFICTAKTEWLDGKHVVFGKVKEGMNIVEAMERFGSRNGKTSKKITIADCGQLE
# Method in brief: as §1
# [3] = target: T3, CypD R124A (Homo sapiens, UniProt P30405, R124A); test: Chymotrypsin coupled prolyl-isomerase assay; assay type: biochemical; conditions: mutant CypD R124A; read-out: Mutant Cyclophilin Prolyl Isomerase Inhibition IC50 Values, CypD R124A
# T3 construct: made in house; host or cells: E. coli BL21(DE3)
# T3 sequence (P30405 45-207 R124A): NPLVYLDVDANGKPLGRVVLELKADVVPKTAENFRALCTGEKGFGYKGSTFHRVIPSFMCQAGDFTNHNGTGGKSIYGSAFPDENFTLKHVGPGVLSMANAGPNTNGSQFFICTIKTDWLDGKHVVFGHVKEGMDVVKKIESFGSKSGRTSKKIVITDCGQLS
# Method in brief: as §1
# [4] = target: T4, CypE (Homo sapiens, UniProt Q9UNP9); test: Chymotrypsin coupled prolyl-isomerase assay; assay type: biochemical; conditions: for CypE prolyl-isomerase assay raw dose-response value: Fig. 3b source data, replicates
# T4 construct: PPIE (UniProtKB Entry Q9UNP9: residues 131–301); host or cells: E. coli BL21(DE3)
# T4 sequence (Q9UNP9 131-301): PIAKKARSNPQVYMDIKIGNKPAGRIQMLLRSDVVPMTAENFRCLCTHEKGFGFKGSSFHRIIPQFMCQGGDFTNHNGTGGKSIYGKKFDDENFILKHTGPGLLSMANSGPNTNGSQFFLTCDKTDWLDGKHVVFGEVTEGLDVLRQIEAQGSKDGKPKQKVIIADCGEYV
# Method in brief: as §1
# [5] = target: T5, CypD R124K (Homo sapiens, UniProt P30405, R124K); test: Chymotrypsin coupled prolyl-isomerase assay; assay type: biochemical; conditions: mutant CypD R124K; read-out: Mutant Cyclophilin Prolyl Isomerase Inhibition IC50 Values, CypD R124K
# T5 construct: made in house; host or cells: E. coli BL21(DE3)
# T5 sequence (P30405 45-207 R124K): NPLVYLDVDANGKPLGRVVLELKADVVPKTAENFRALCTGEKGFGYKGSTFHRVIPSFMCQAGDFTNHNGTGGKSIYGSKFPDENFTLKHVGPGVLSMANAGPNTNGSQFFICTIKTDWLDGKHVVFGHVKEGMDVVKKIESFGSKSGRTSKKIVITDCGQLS
# Method in brief: as §1
# [6] = target: T6, CypD K118E (Homo sapiens, UniProt P30405, K118E); test: Chymotrypsin coupled prolyl-isomerase assay; assay type: biochemical; conditions: prolyl-isomerase inhibition
# T6 construct: made in house; host or cells: E. coli BL21(DE3)
# T6 sequence (P30405 45-207 K118E): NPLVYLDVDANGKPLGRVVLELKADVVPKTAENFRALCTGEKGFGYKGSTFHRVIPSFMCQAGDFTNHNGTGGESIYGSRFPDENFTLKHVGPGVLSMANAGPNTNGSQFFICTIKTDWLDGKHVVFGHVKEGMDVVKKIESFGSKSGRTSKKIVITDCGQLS
# Method in brief: as §1
# [7] = target: T7, CypC (Homo sapiens, UniProt P45877); test: Chymotrypsin coupled prolyl-isomerase assay; assay type: biochemical; conditions: for CypC prolyl-isomerase assay raw dose-response value: Fig. 3b source data, replicates
# T7 construct: PPIC (UniProtKB Entry P45877: residues 24–212); host or cells: E. coli BL21(DE3)
# T7 sequence (P45877 24-212): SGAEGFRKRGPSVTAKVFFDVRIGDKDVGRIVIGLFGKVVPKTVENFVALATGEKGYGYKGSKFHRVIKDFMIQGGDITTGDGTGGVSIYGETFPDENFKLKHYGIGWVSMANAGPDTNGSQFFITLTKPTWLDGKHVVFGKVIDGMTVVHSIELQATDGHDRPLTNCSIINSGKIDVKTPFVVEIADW
# Method in brief: as §1
# [8] = target: T8, CypD K118A (Homo sapiens, UniProt P30405, K118A); test: Chymotrypsin coupled prolyl-isomerase assay; assay type: biochemical; conditions: prolyl-isomerase inhibition
# T8 construct: made in house; host or cells: E. coli BL21(DE3)
# T8 sequence (P30405 45-207 K118A): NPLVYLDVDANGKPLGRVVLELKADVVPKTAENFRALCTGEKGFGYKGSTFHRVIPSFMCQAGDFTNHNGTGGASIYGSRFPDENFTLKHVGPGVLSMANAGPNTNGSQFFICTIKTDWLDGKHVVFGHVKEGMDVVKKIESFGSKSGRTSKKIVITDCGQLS
# Method in brief: as §1
# [9] = target: Cyp40 (Homo sapiens, UniProt Q08752); test: Chymotrypsin coupled prolyl-isomerase assay; conditions: for Cyp40 prolyl-isomerase assay raw dose-response value: Fig. 3b source data, replicates
# Chain of Cyp40 (Q08752 1-183): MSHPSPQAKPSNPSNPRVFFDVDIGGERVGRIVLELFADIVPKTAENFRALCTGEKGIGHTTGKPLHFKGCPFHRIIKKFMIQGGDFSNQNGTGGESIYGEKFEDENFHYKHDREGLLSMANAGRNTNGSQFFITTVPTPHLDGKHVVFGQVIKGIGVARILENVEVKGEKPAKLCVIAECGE
# Method in brief: as §1
# [10] = target: T9, NKTR (Homo sapiens, UniProt P30414); test: Chymotrypsin coupled prolyl-isomerase assay; assay type: biochemical; conditions: for NKTR prolyl-isomerase assay raw dose-response value: Fig. 3b source data, replicates
# T9 construct: NKTR (UniProtKB Entry P30414: residues 7–179); host or cells: E. coli BL21(DE3)
# T9 sequence (P30414 7-179): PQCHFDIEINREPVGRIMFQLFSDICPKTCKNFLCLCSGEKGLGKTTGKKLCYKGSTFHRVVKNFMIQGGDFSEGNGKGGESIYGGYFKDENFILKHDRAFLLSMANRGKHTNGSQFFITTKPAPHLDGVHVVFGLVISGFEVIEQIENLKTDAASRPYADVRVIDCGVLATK
# Procedure: Adapting a previously described protocol[51], with an Agilent Bravo Velocity 11 with a 384ST head, 90 µL assay buffer (25 mM HEPES pH 7.3, 100 mM NaCl, 0.01% Triton X-100) containing 5.28 nM cyclophilin was added into a flat, clear-bottom, black 384-well plate pre-chilled in a Corning CoolBox at 2–3 °C. Five microliters of compound pre-dissolved in 5% DMSO/assay buffer was then added to appropriate wells and incubated at 2–3 °C for 5 min. Five microliters of 0.5 mM α-chymotrypsin from bovine pancreas (Type II, lyophilized powder, Millipore-Sigma) in 20% 1 mM HCl/Assay Buffer was then added to each well and incubated at 2–3 °C for 5 min. […] Using the internal liquid handling system of the FLIPR, 1 µL 0.5 mM Suc-AAPF-AMC (Chymotrypsin Substrate II, Millipore-Sigma) dissolved in 0.55 M LiCl/2,2,2-trifluoroethanol was added to each well, which was then mixed for 5 s, followed by immediate fluorescence measurements every 1 s for 330 s using a 360–380 nm excitation LED module and a 400–460 nm emission filter. Final concentrations of the plate include 5 nM cyclophilin, 0.25% DMSO, 25 µM α-chymotrypsin, 5 µM Suc-AAPF-AMC. Raw fluorescence data was analyzed by non-linear regression analysis with Prism v.9 by fitting one-phase association curves to each well. Analyses were halted after the calculated maximum fluorescent value owing to observed fluorescent bleaching during the sustained fluorescent plateau. Rate constants calculated for each well (s^−1) were then normalized to substrate only (no prolyl-isomerase) and enzyme + substrate only controls. IC50 values were calculated as the value at which 50% inhibition was achieved on the non-linear regression fitted curve of each compound.
# [11] = CypB (comparator for CypB E121S), read-out: Mutant Cyclophilin Prolyl Isomerase Inhibition IC50 Values, CypB
# [12] = prolyl-isomerase inhibition, 5 nM cyclophilin, read-out: IC50 CypB
# [13] = wild-type CypB, read-out: Wild-Type Cyclophilin Prolyl Isomerase Inhibition IC50 Values, CypB
# [14] = wild-type CypE, read-out: Wild-Type Cyclophilin Prolyl Isomerase Inhibition IC50 Values, CypE
# [15] = wild-type CypC, read-out: Wild-Type Cyclophilin Prolyl Isomerase Inhibition IC50 Values, CypC
# [16] = Wild-Type Cyclophilin Prolyl Isomerase Inhibition IC50 Values, Cyp40, wild-type Cyp40
# [17] = wild-type NKTR, read-out: Wild-Type Cyclophilin Prolyl Isomerase Inhibition IC50 Values, NKTR
smiles,measurement,setting,value
NCCOCCNC(=O)[C@@H]1CCNC(=O)/C=C/C(=O)N2CCC[C@](Cc3ccccc3)(C2)C(=O)N[C@@H](Cc2ccc(-c3ccc(C#CC(=O)O)cc3)cc2)C(=O)NCc2ccccc2CC(=O)N1 [Compound B25],IC50,[1]; [11],11 nM
same,CypB prolyl-isomerase assay raw dose-response value,[1]; Dose 0.000457247 µM,0.06463 and 0.04091 and 0.06594
same,CypB prolyl-isomerase assay raw dose-response value,[1]; Dose 0.00137174 µM,0.06615 and 0.04875 and 0.05304
same,CypB prolyl-isomerase assay raw dose-response value,[1]; Dose 0.00411523 µM,0.04683 and 0.04984
same,CypB prolyl-isomerase assay raw dose-response value,[1]; Dose 0.0123457 µM,0.03647 and 0.03228 and 0.03371
same,CypB prolyl-isomerase assay raw dose-response value,[1]; Dose 0.037037 µM,0.02322 and 0.02268 and 0.02146
same,CypB prolyl-isomerase assay raw dose-response value,[1]; Dose 0.111111 µM,0.01709 and 0.01633 and 0.0158
same,CypB prolyl-isomerase assay raw dose-response value,[1]; Dose 0.333333 µM,0.01481 and 0.01358 and 0.01262
same,CypB prolyl-isomerase assay raw dose-response value,[1]; Dose 1 µM,0.01394 and 0.01269 and 0.01205
same,IC50,[1]; [12],11 ± 3 nM
same,IC50,[1]; [13],11 nM
same,IC50,"[2]; mutant CypA E81S/K82R, read-out: Mutant Cyclophilin Prolyl Isomerase Inhibition IC50 Values, CypA E81S/K82R",6.2 nM
same,IC50,[3],2 nM
same,CypE prolyl-isomerase assay raw dose-response value,[4]; Dose 0.000457247 µM,0.09478 and 0.08516 and 0.1307
same,CypE prolyl-isomerase assay raw dose-response value,[4]; Dose 0.00137174 µM,0.1073 and 0.09145 and 0.116
same,CypE prolyl-isomerase assay raw dose-response value,[4]; Dose 0.00411523 µM,0.07586 and 0.07841
same,CypE prolyl-isomerase assay raw dose-response value,[4]; Dose 0.0123457 µM,0.04723 and 0.04807 and 0.05181
same,CypE prolyl-isomerase assay raw dose-response value,[4]; Dose 0.037037 µM,0.02767 and 0.0265 and 0.02701
same,CypE prolyl-isomerase assay raw dose-response value,[4]; Dose 0.111111 µM,0.01749 and 0.01613 and 0.01666
same,CypE prolyl-isomerase assay raw dose-response value,[4]; Dose 0.333333 µM,0.01375 and 0.01292 and 0.01229
same,CypE prolyl-isomerase assay raw dose-response value,[4]; Dose 1 µM,0.01434 and 0.0116 and 0.01112
same,IC50,[4]; [14],9 nM
same,IC50,[5],2.9 nM
same,IC50,[6],60 nM
same,CypC prolyl-isomerase assay raw dose-response value,[7]; Dose 0.0228624 µM,0.03634 and 0.03032 and 0.04283
same,CypC prolyl-isomerase assay raw dose-response value,[7]; Dose 0.0685871 µM,0.03426 and 0.03095 and 0.03961
same,CypC prolyl-isomerase assay raw dose-response value,[7]; Dose 0.205761 µM,0.03174 and 0.03534
same,CypC prolyl-isomerase assay raw dose-response value,[7]; Dose 0.617284 µM,0.02955 and 0.03116 and 0.0299
same,CypC prolyl-isomerase assay raw dose-response value,[7]; Dose 1.85185 µM,0.02445 and 0.02477 and 0.02432
same,CypC prolyl-isomerase assay raw dose-response value,[7]; Dose 5.55556 µM,0.0192 and 0.01832 and 0.02111
same,CypC prolyl-isomerase assay raw dose-response value,[7]; Dose 16.6667 µM,0.016 and 0.01339 and 0.01312
same,CypC prolyl-isomerase assay raw dose-response value,[7]; Dose 50 µM,0.01835 and 0.01198 and 0.01251
same,IC50,[7]; [15],1800 nM
same,IC50,[8],19 nM
same,Cyp40 prolyl-isomerase assay raw dose-response value,[9]; Dose 0.00457247 µM,0.06429 and 0.05599 and 0.07223
same,Cyp40 prolyl-isomerase assay raw dose-response value,[9]; Dose 0.0137174 µM,0.05813 and 0.05507 and 0.05318
same,Cyp40 prolyl-isomerase assay raw dose-response value,[9]; Dose 0.0411523 µM,0.04821 and 0.05825 and 0.0731
same,Cyp40 prolyl-isomerase assay raw dose-response value,[9]; Dose 0.123457 µM,0.04592 and 0.05196 and 0.05288
same,Cyp40 prolyl-isomerase assay raw dose-response value,[9]; Dose 0.37037 µM,0.03591 and 0.03468 and 0.03748
same,Cyp40 prolyl-isomerase assay raw dose-response value,[9]; Dose 1.11111 µM,0.02292 and 0.02127 and 0.02239
same,Cyp40 prolyl-isomerase assay raw dose-response value,[9]; Dose 3.33333 µM,0.01681 and 0.01439 and 0.01521
same,Cyp40 prolyl-isomerase assay raw dose-response value,[9]; Dose 10 µM,0.01651 and 0.01201 and 0.01273
same,IC50,[9]; [16],210 nM
same,NKTR prolyl-isomerase assay raw dose-response value,[10]; Dose 0.0228624 µM,0.03241 and 0.03231 and 0.03444
same,NKTR prolyl-isomerase assay raw dose-response value,[10]; Dose 0.0685871 µM,0.03299 and 0.03067 and 0.03202
same,NKTR prolyl-isomerase assay raw dose-response value,[10]; Dose 0.205761 µM,0.03236 and 0.03203
same,NKTR prolyl-isomerase assay raw dose-response value,[10]; Dose 0.617284 µM,0.03089 and 0.03188 and 0.03316
same,NKTR prolyl-isomerase assay raw dose-response value,[10]; Dose 1.85185 µM,0.03191 and 0.03168 and 0.03161
same,NKTR prolyl-isomerase assay raw dose-response value,[10]; Dose 5.55556 µM,0.03134 and 0.03255 and 0.03129
same,NKTR prolyl-isomerase assay raw dose-response value,[10]; Dose 16.6667 µM,0.03138 and 0.0295 and 0.03008
same,NKTR prolyl-isomerase assay raw dose-response value,[10]; Dose 50 µM,0.02697 and 0.02369 and 0.02457
same,IC50,[10]; [17],> 50000 nM
NCCOCCNC(=O)[C@@H]1CCNC(=O)/C=C/C(=O)N2CCC[C@](Cc3ccccc3)(C2)C(=O)N[C@@H](Cc2ccc(-c3ccc(CC(C(=O)O)C(=O)O)cc3)cc2)C(=O)NCc2ccccc2CC(=O)N1 [Compound B52],IC50,[1]; [11],200 nM
same,IC50,"[1]; Independent replicate 1, read-out: IC50 CypB",200 ± 50 nM
same,IC50,"[1]; Independent replicate 2, read-out: IC50 CypB",190 ± 30 nM
same,IC50,"[1]; Independent replicate 3, read-out: IC50 CypB",210 ± 40 nM
same,IC50,"[1]; Independent replicate 4, read-out: IC50 CypB",200 ± 100 nM
same,IC50,[1]; [12],210 nM
same,IC50,"[1]; prolyl-isomerase inhibition, read-out: IC50 CypB",210 nM
same,IC50,[1]; [13],210 nM
same,IC50,"[2]; prolyl-isomerase inhibition, read-out: IC50 CypA E81S/K82R",27 nM
same,IC50,[3],17 nM
same,IC50,"[4]; Independent replicate 1, read-out: IC50 CypE",210 ± 80 nM
same,IC50,"[4]; Independent replicate 2, read-out: IC50 CypE",400 ± 100 nM
same,IC50,"[4]; Independent replicate 3, read-out: IC50 CypE",300 ± 100 nM
same,IC50,"[4]; Independent replicate 4, read-out: IC50 CypE",360 ± 70 nM
same,IC50,[4]; [14],310 nM
same,IC50,[5],20 nM
same,IC50,[6],300 nM
same,IC50,"[7]; Independent replicate 1, read-out: IC50 CypC",> 100000 nM
same,IC50,"[7]; Independent replicate 2, read-out: IC50 CypC",> 100000 nM
same,IC50,"[7]; Independent replicate 3, read-out: IC50 CypC",> 100000 nM
same,IC50,"[7]; Independent replicate 4, read-out: IC50 CypC",> 100000 nM
same,IC50,"[7]; prolyl-isomerase inhibition, 5 nM cyclophilin, read-out: IC50 CypC",> 100000 nM
same,IC50,"[7]; prolyl-isomerase inhibition, read-out: IC50 CypC",> 100000 nM
same,IC50,[7]; [15],> 100000 nM
same,IC50,[8],73 nM
same,IC50,"[9]; IC50 Cyp40, Independent replicate 1",13000 ± 5000 nM
same,IC50,"[9]; IC50 Cyp40, Independent replicate 2",30000 ± 20000 nM
same,IC50,"[9]; IC50 Cyp40, Independent replicate 3",20000 ± 10000 nM
same,IC50,"[9]; IC50 Cyp40, Independent replicate 4",20000 ± 10000 nM
same,IC50,[9]; [16],22000 nM
same,IC50,"[10]; Independent replicate 1, read-out: IC50 NKTR",> 100000 nM
same,IC50,"[10]; Independent replicate 2, read-out: IC50 NKTR",> 100000 nM
same,IC50,"[10]; Independent replicate 3, read-out: IC50 NKTR",> 100000 nM
same,IC50,"[10]; Independent replicate 4, read-out: IC50 NKTR",> 100000 nM
same,IC50,"[10]; prolyl-isomerase inhibition, 5 nM cyclophilin, read-out: IC50 NKTR",> 100000 nM
same,IC50,"[10]; prolyl-isomerase inhibition, read-out: IC50 NKTR",> 100000 nM
same,IC50,[10]; [17],> 100000 nM
